Assay results reported in patent publication US20130324530A1 (Novartis AG, priority 2010, published 2013).
pIC50: −log10 of the molar value.

Biological target: Cdk9/cyclinT1 (Homo sapiens, UniProt P50750)
Assay: Cdk9/CyclinT1 IMAP assay
Experimental: The final total protein concentration in the assay is 4 nM. […] The final concentration of peptide substrate is 100 nM. […] The final concentration of ATP substrate is 6 uM. IMAP (Immobilized Metal Assay for Phosphochemicals) Progressive Binding reagent is purchased from Molecular Devices, cat#R8139. Fluorescence polarization (FP) is used for detection. The 5TAMRA-cdk7tide peptide is phosphorylated by Cdk9/cyclinT1 kinase using the ATP substrate. The Phospho-5TAMRA-cdk7tide peptide substrate is bound to the IMAP Progressive Binding Reagent. […] IMAP Progressive Binding Reagent is diluted 1:800 in 100% 1× Solution A from Molecular Devices, cat#R7285.
General protocol is as follows: To 10 ul of cdk9/cyclinT1, 0.5 ul of test compound in dimethyl sulfoxide is added. [sequence]-cdk7tide and ATP are mixed. 10 ul of the 5TAMRA-cdk7tide/ATP mix is added to start the reaction. The reaction is allowed to proceed for 4.5 hrs. 60 uL of IMAP Progressive Binding Reagent is added.

Sequence of Cdk9/cyclinT1 (P50750 whole entry): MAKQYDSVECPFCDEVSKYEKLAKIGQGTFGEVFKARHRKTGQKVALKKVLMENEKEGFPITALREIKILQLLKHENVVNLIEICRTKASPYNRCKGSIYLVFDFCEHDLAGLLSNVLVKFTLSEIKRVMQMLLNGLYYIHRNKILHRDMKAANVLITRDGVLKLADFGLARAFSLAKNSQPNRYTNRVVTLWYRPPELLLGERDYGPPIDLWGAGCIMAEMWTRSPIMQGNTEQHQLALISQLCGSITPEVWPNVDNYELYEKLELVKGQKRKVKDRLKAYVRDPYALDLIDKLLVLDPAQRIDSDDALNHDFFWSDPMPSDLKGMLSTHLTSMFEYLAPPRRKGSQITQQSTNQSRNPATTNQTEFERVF
Sequence of Cdk9/cyclinT1 (O60563 whole entry partner): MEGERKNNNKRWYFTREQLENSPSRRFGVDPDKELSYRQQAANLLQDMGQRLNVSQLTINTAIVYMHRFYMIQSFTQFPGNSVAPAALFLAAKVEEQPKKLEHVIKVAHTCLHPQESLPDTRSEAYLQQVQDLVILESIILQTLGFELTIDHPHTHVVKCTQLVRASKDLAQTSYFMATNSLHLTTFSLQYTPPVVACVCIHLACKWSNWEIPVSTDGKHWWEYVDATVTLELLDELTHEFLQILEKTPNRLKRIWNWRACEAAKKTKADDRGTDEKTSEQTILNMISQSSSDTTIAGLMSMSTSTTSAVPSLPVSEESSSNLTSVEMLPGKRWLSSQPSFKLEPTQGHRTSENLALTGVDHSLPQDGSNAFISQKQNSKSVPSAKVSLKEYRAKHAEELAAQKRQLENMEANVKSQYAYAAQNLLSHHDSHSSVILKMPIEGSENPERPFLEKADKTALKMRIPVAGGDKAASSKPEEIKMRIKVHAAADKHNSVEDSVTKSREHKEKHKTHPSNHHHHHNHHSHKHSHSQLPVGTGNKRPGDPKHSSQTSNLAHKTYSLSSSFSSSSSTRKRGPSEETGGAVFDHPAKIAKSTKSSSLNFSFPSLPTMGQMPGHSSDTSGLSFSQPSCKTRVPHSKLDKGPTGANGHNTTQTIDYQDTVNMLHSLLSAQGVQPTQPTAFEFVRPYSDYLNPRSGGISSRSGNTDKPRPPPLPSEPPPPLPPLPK

Compound	pIC50
N[C@H]1CC[C@H](Nc2cc(-c3cc(NCC4CCOCC4)cnc3Cl)c(Cl)cn2)CC1 [Compound 79]	> 8.10
CN1CCC(CNc2cc(-c3cncc(NCC4CCOCC4)c3)c(Cl)cn2)CC1 [Compound 28]	5.71
CC(C)(CN)CNc1cc(-c2cncc(NCc3cccc(F)c3)c2)c(Cl)cn1 [Compound 12]	7.49
CN(Cc1cccc(F)c1)c1cncc(-c2cc(N[C@H]3CC[C@H](N)CC3)ncc2Cl)c1 [Compound 32]	7.80
N[C@H]1CC[C@H](Nc2cc(-c3cncc(OCc4cccc(F)c4)c3)c(Cl)cn2)CC1 [Compound 88]	> 9.00
N[C@H]1CC[C@H](Nc2cc(-c3cnc(N4CCOCC4)c(NCc4cccc(F)c4)c3)c(Cl)cn2)CC1 [Compound 45]	6.21
O[C@H]1CC[C@H](Nc2cc(-c3cnc(Cl)c(NCC4CCOCC4)c3)c(Cl)cn2)CC1 [Compound 86]	> 8.10
NC[C@H]1CC[C@H](Nc2cc(-c3cnc(Cl)c(NCC4CCOCC4)c3)c(Cl)cn2)CC1 [Compound 83]	> 8.10
COCCN[C@H]1CC[C@H](Nc2cc(-c3cnc(Cl)c(NCC4CCOCC4)c3)c(Cl)cn2)CC1 [Compound 78, 5′,6-dichloro-N2′-(trans-4-(2-methoxyethylamino)cyclohexyl)-N5-((tetrahydro-2H-pyran-4-yl)methyl)-3,4′-bipyridine-2′,5-diamine]	> 8.10
N[C@H]1CC[C@H](Nc2cc(-c3cnc(F)c(NCC4CCOCC4)c3)c(Cl)cn2)CC1 [Compound 55, N2′-(trans-4-aminocyclohexyl)-5′-chloro-6-fluoro-N5-((tetrahydro-2H-pyran-4-yl)methyl)-3,4′-bipyridine-2′,5-diamine]	> 8.10
N[C@H]1CC[C@H](Nc2cc(-c3cncc(NCc4cccnc4)c3)c(Cl)cn2)CC1 [Compound 22]	8.05
CN1CCC(CNc2cc(-c3cncc(NCc4cccc(F)c4)c3)c(Cl)cn2)CC1 [Compound 69]	> 8.10
Clc1cnc(NCC[C@H]2CCCNC2)cc1-c1cncc(NCC2CCOCC2)c1 [Compound 56]	7.17
O[C@H](CN[C@H]1CC[C@H](Nc2cc(-c3cc(NCC4CCOCC4)cnc3Cl)c(Cl)cn2)CC1)C(F)(F)F [Compound 74, (R)-3-(trans-4-(2,5′-dichloro-5-((tetrahydro-2H-pyran-4-yl)methyl)amino-3,4′-bipyridin-2′-ylamino)cyclohexylamino)-1,1,1-trifluoropropan-2-ol]	9.00
N[C@H]1CC[C@H](Nc2cc(-c3cncc(NCc4cccc(F)c4)c3)ccn2)CC1 [Compound 44, N2′-(trans-4-aminocyclohexyl)-N5-(3-fluorobenzyl)-3,4′-bipyridine-2′,5-diamine]	> 8.10
N[C@H]1CC[C@H](Nc2cc(-c3cncc(NCc4cc(F)ccc4F)c3)c(Cl)cn2)CC1 [Compound 43]	> 8.10
OCCNc1cc(-c2cncc(NCC3CCOCC3)c2)c(Cl)cn1 [Compound 68]	6.09
OCC(CO)Nc1cc(-c2cncc(NCc3cccc(F)c3)c2)c(Cl)cn1 [Compound 59]	6.89
NCCCCNc1cc(-c2cncc(NCc3cccc(F)c3)c2)c(Cl)cn1 [Compound 61]	> 8.10
Fc1cccc(CNc2cncc(-c3cc(NCC4CCOCC4)ncc3Cl)c2)c1 [Compound 70]	8.05
Clc1cnc(N[C@H]2CC[C@H](N3CCCC3)CC2)cc1-c1cnc(Cl)c(NCC2CCOCC2)c1 [Compound 81]	7.35
OC[C@H]1CC[C@H](Nc2cc(-c3cnc(Cl)c(NCC4CCOCC4)c3)c(Cl)cn2)CC1 [Compound 80]	> 8.10

Compound	pIC50
O[C@H]1CC[C@H](Nc2cc(-c3cnc(N4CCOCC4)c(NCc4cccc(F)c4)c3)c(Cl)cn2)CC1 [Compound 53]	6.18
N[C@H]1CC[C@H](Nc2cc(-c3cncc(NCC4CCCOC4)c3)c(Cl)cn2)CC1 (stereo partly shown) [Compound 29]	7.80
CS(=O)(=O)N1CCC(CNc2cncc(-c3cc(N[C@H]4CC[C@H](N)CC4)ncc3Cl)c2)CC1 [Compound 52]	7.46
O[C@H]1CC[C@@H](Nc2cc(-c3cc(NCC4CCOCC4)cnc3Cl)c(Cl)cn2)CC1 [Compound 17]	7.60
N[C@H]1CC[C@H](Nc2cc(-c3cncc(NCc4ccncc4)c3)c(Cl)cn2)CC1 [Compound 71]	> 8.10
O[C@H]1CC[C@H](Nc2cc(-c3cncc(NCc4cccc(F)c4)c3)c(Cl)cn2)CC1 [Compound 62]	> 8.10
N[C@H]1CC[C@@H](Nc2cc(-c3cncc(NCc4cccc(F)c4)c3)c(Cl)cn2)CC1 [Compound 21]	7.96
CN(C)CCCCNc1cc(-c2cncc(NCc3cccc(F)c3)c2)c(Cl)cn1 [Compound 38]	7.68
COc1cccc(CNc2cncc(-c3cc(N[C@H]4CC[C@H](N)CC4)ncc3Cl)c2)c1 [Compound 15]	8.10
N[C@H]1CC[C@H](Nc2cc(-c3cnc(Cl)c(NCC4CCOCC4)c3)c(Cl)cn2)CC1 [Compound 77, N2′-(trans-4-aminocyclohexyl)-5′,6-dichloro-N5-((tetrahydro-2H-pyran-4-yl)methyl)-3,4′-bipyridine-2′,5-diamine]	> 8.10
Fc1cccc(CNc2cc(-c3cc(NC4CCCC4)ncc3Cl)cnc2N2CCOCC2)c1 [Compound 66]	5.83
Clc1cnc(NC2CC2)cc1-c1cncc(NCC2CCOCC2)c1 [Compound 27]	7.24
O[C@@H](CN[C@H]1CC[C@H](Nc2cc(-c3cc(NCC4CCOCC4)cnc3Cl)c(Cl)cn2)CC1)C(F)(F)F [Compound 73]	8.70
Fc1cccc(CNc2cncc(-c3cc(N[C@H]4CC[C@H](N5CCCC5)CC4)ncc3Cl)c2)c1 [Compound 84]	> 8.10
OCCNc1cc(-c2cnc(N3CCOCC3)c(NCc3cccc(F)c3)c2)c(Cl)cn1 [Compound 37]	5.16
NCCCNc1cc(-c2cncc(NCc3cccc(F)c3)c2)c(Cl)cn1 [Compound 60]	> 8.10
N[C@H]1CC[C@H](Nc2cc(-c3cncc(NCc4cccc(F)c4)c3)c(Cl)cn2)CC1 [Compound 24, N2′-(trans-4-aminocyclohexyl)-5′-chloro-N5-(3-fluorobenzyl)-3,4′-bipyridine-2′,5-diamine]	> 8.10
NC[C@H]1CC[C@H](Nc2cc(-c3cncc(OCc4cccc(F)c4)c3)c(Cl)cn2)CC1 [Compound 89]	> 9.00
NCC(O)CNc1cc(-c2cncc(NCc3cccc(F)c3)c2)c(Cl)cn1 (stereo not shown) [Compound 50]	8.00
Fc1cccc(CNc2cncc(-c3cc(NCC[C@H]4CCCNC4)ncc3Cl)c2)c1 [Compound 49]	> 8.10
COCCNc1cc(-c2cncc(NCC3CCOCC3)c2)c(Cl)cn1 [Compound 58]	5.65
N[C@H]1CC[C@H](Nc2cc(-c3cncc(NCc4cc(F)cc(F)c4)c3)c(Cl)cn2)CC1 [Compound 64]	> 8.10

Compound	pIC50
CC(=O)N1CCC(CNc2cncc(-c3cc(N[C@H]4CC[C@H](N)CC4)ncc3Cl)c2)CC1 [Compound 36, 1-(4-((2′-(trans-4-aminocyclohexylamino)-5′-chloro-3,4′-bipyridin-5-ylamino)methyl)piperidin-1-yl)ethanone]	7.49
N[C@H]1CC[C@H](Nc2cc(-c3cncc(NCC4CCCCC4)c3)c(Cl)cn2)CC1 [Compound 23]	8.00
CN(C)CC(C)(C)CNc1cc(-c2cncc(NCc3cccc(F)c3)c2)c(Cl)cn1 [Compound 13]	6.89
N[C@H]1CC[C@H](Nc2cc(-c3cncc(NCc4cccc(Cl)c4)c3)c(Cl)cn2)CC1 [Compound 42]	> 8.10
COCCN[C@H]1CC[C@H](Nc2cc(-c3cncc(NCc4cccc(F)c4)c3)c(Cl)cn2)CC1 [Compound 82]	> 8.10
OCCCNc1cc(-c2cncc(NCc3cccc(F)c3)c2)c(Cl)cn1 [Compound 40]	> 8.10
O[C@H]1CCCC[C@@H]1N[C@H]1CC[C@H](Nc2cc(-c3cnc(F)c(NCC4CCOCC4)c3)c(Cl)cn2)CC1 [Compound 92]	8.74
O[C@H]1CCCC[C@@H]1N[C@H]1CC[C@H](Nc2cc(-c3cnc(Cl)c(NCC4CCOCC4)c3)c(Cl)cn2)CC1 [Compound 91]	8.57
Clc1cnc(N[C@H]2CC[C@H](N3CCCC3)CC2)cc1-c1cc(NCC2CCOCC2)cnc1Cl [Compound 76, 2,5′-dichloro-N2′-(trans-4-(pyrrolidin-1-yl)cyclohexyl)-N5-((tetrahydro-2H-pyran-4-yl)methyl)-3,4′-bipyridine-2′,5-diamine]	7.46
C[C@@H](CO)Nc1cc(-c2cncc(NCC3CCOCC3)c2)c(Cl)cn1 [Compound 67]	6.47
N[C@H]1CC[C@H](Nc2cc(-c3cncc(NCc4ccccc4)c3)c(Cl)cn2)CC1 [Compound 51]	> 8.10
Cc1cccc(CNc2cncc(-c3cc(N[C@H]4CC[C@H](N)CC4)ncc3Cl)c2)c1 [Compound 34]	> 8.10
O[C@H]1CC[C@H](Nc2cc(-c3cnc(N4CCOCC4)c(NCC4CCOCC4)c3)c(Cl)cn2)CC1 [Compound 46]	5.74
NC[C@H]1CC[C@H](Nc2cc(-c3cncc(NCc4cccc(F)c4)c3)c(Cl)cn2)CC1 [Compound 39, N2′-(trans-4-(aminomethyl)cyclohexyl)-5′-chloro-N5-(3-fluorobenzyl)-3,4′-bipyridine-2′,5-diamine]	> 8.10
N[C@H]1CC[C@H](Nc2cc(-c3cnc(O)c(NCC4CCOCC4)c3)c(Cl)cn2)CC1 [Compound 87, 2′-(trans-4-aminocyclohexylamino)-5′-chloro-5-((tetrahydro-2H-pyran-4-yl)methyl)amino-3,4′-bipyridin-6-ol]	6.38
CN(C)[C@H]1CC[C@H](Nc2cc(-c3cncc(NCc4cccc(F)c4)c3)c(Cl)cn2)CC1 [Compound 31, 5′-chloro-N2′-(trans-4-(dimethylamino)cyclohexyl)-N5-(3-fluorobenzyl)-3,4′-bipyridine-2′,5-diamine]	> 8.10
OCCCNc1cc(-c2cncc(NCC3CCOCC3)c2)c(Cl)cn1 [Compound 57]	6.70
O[C@H]1CCCC[C@@H]1N[C@H]1CC[C@H](Nc2cc(-c3cc(NCC4CCOCC4)cnc3Cl)c(Cl)cn2)CC1 [Compound 90]	8.55
N[C@H]1CC[C@H](Nc2cc(-c3cncc(NCc4ccc(F)c(F)c4)c3)c(Cl)cn2)CC1 [Compound 35]	> 8.10
N[C@H]1CC[C@H](Nc2cc(-c3cncc(NCc4ccc(F)cc4)c3)c(Cl)cn2)CC1 [Compound 33]	> 8.10
